This is an account of results in patent publication US10433556B2, “Treatment and/or prophylaxis of storage diseases of harvested material” (priority 2011, dated 2019).

Structures are written as SMILES.

The subject of data set [1] is Helminthosporium solani. Kind of data set: Field trial 2010/2011 Netherlands: production of spores of the silver scurf pathogen on the potato tuber. In kind it is in vivo. As to conditions: treatment of the potato before the storage; FIG. 2. Here is the method: (§1) For the treatment of the seed potato at or before the laying into the ground soil Proradix is used as a liquid mordant [Proradix WG (LF 4816-00); Sourcon […] GmbH & Co. KG, Tübingen, Germany], according to the information of the manufacturer in a concentration of 60 g/ha via the spraying method by using a ULV spraying device. Before the storage of the potatoes 20 g of Proradix WG is dissolved in a maximum of 2 l of water per barrel. The application onto the potatoes is also effected by means of a ULV spraying device. The laying of the potato and, if applicable, the treatment with Proradix and/or Imazalil is carried out in springtime and the harvest and storage and, if applicable, the treatment with Proradix and/or Imazalil is carried out in fall of the same year. In a further field trial conducted in the years of 2010/2011 in the Netherlands according to the EPPO guidelines the influence of Proradix in comparison to the chemical standard of Imazalil on the production of spores of the fungal pathogen of Helminthosporium solani, the initiator of the silver scurf, and the rate of germination of the spores on the potato tuber was examined.

The next data set relates to birds and ducks. As to conditions: in vivo; cited from earlier work.
Data set [2] relates to silver scurf on potato tubers. Kind of data set: Field trial 2010/2011 Germany: Proradix in combination with Imazalil, affection by silver scurf after storage. Particulars: exclusively Imazalil at the laying and the storage; vs untreated potatoes; FIG. 5 third column. Type of data set: in vivo, Helminthosporium solani. Here is the method: For the treatment of the seed potato at or before the laying into the ground soil Proradix is used as a liquid mordant [Proradix WG (LF 4816-00); Sourcon […] GmbH & Co. KG, Tübingen, Germany], according to the information of the manufacturer in a concentration of 60 g/ha via the spraying method by using a ULV spraying device. Before the storage of the potatoes 20 g of Proradix WG is dissolved in a maximum of 2 l of water per barrel. The application onto the potatoes is also effected by means of a ULV spraying device. The laying of the potato and, if applicable, the treatment with Proradix and/or Imazalil is carried out in springtime and the harvest and storage and, if applicable, the treatment with Proradix and/or Imazalil is carried out in fall of the same year. In a field trial conducted in the years of 2010 and 2011 in Germany according to the EPPO guidelines it was examined in detail, whether Proradix can also be effectively used in combination with the chemical of Imazalil. For this purpose a part of the potatoes remain untreated, a part was treated with the chemical of Imazalil at the laying, and a part was treated at the laying and also before the storage with the chemical of Imazalil, and yet another part was treated at the laying with Imazalil and before the storage with Proradix.

Data set [3] has as its system Helminthosporium solani. Kind of data set: Field trial 2010/2011 Netherlands: rate of germination of the spores on the potato tuber. Type of data set: in vivo. Particulars: use of Imazalil; FIG. 3 fourth column. Here is the method:
as §1

The next data set relates to fish. As to conditions: in vivo; cited from earlier work.

For the compound `C=CCOC(Cn1ccnc1)c1ccc(Cl)cc1Cl` (centres unmarked) [Imazalil], in the data set on Helminthosporium solani [1], the formation of spores result is “comparable”. Also, the “effect on birds and ducks” value in the data set on birds and ducks is given as “causes damages”. The “affection by silver scurf after the storage” value in data set [2] was “significantly diminished reduction”. Moreover, in the data set on Helminthosporium solani [3], the “share of spores able to germinate” value was “half”. Also, in the data set on fish, the toxicity for fish result is on record as “toxic”.
